The values that follow come from patent publication EP0679394B1, “Menatetronome derivative as antiarteriosclerotic agent” (Eisai Co., Ltd., priority 1994, dated 1995).

The subject of one series is SD rats. The series can be described thus: Acute (single administration) toxicity test in rats. The series is classed as in vivo. The following applies: Rat F, medium 5% gum arabic. The procedure:
(§1) Next, the results of the acute toxicity test of 2-methyl-3-[(2E,6E,10E)-3,7,11,15-tetramethyl-2,6,10,14-hexadecatetraenyl]naphthoquinone (generic name: vitamin K2), which is a typical example of the compound of the present invention, will be given. An acute toxicity test was conducted as follows:
(§2) A single administration toxicity test was effected by orally, subcutaneously and intraperitoneally administering the test compound (medium: 5% gum arabic) to SD rats, ICR mice and beagles aged 7 to 8 weeks (5 females and 5 males in each case).

Test in series [1]: as above
The series is classed as in vivo, SD rats. The following applies: in vivo, Rat M, medium 5% gum arabic. The procedure: as §1, §2

A further series concerns arteriosclerotic rats. The series can be described thus: Effect of vitamin K2 on arteriosclerotic rats (vitamin D2-induced calcification). Format: in vivo. The method, then: Then vitamin D2, vitamin D2 with vitamin K2 (in a low dose), and vitamin D2 with vitamin K2 (in a high dose) were given respectively to the groups A, B and C.
After feeding for five weeks, the urine of each group was sampled for a period of 20 hours and the urinary calcium, phosphorus and creatinine levels were measured.
After feeding for six weeks, the animals of each group were bled to death and the blood, aorta (from the aortic arch to the thoracic aorta) and kidneys were sampled.
The serum was separated from the blood and the serum calcium and phosphorus levels were measured.
The aorta and kidneys were defatted, dehydrated and incinerated and the calcium and phosphorus contents therein were determined.
The calcium concentrations were determined by atomic absorption spectrophotometry. The inorganic phosphorus concentrations were determined by Goldenberg's method. The creatinine concentrations were determined by the enzymatic method.
(The data of each group were compared with those of the control group according to the t-test method.)

A further series concerns beagles. As to the kind of experiment: Acute (single administration) toxicity test in beagles. The note with it: Beagle F, medium 5% gum arabic. Format: in vivo. The procedure: as §1, §2
Test in series [2]: as above
Format: in vivo. The note with it: dog, in vivo, Beagle M, medium 5% gum arabic. The procedure: as §1, §2

A further series relates to ICR mice. The series can be described thus: Acute (single administration) toxicity test in mice. Format: in vivo. The following applies: Mouse F, medium 5% gum arabic. The method, then:
as §1, §2

Test in series [3]: as above
The series is classed as in vivo, ICR mice. The following applies: in vivo, Mouse M, medium 5% gum arabic. The method, then: as §1, §2

[4] abbreviates: Group A: vitamin D2 2.5 × 10^5 IU/kg/day p.o. alone, 6 weeks, n=8.

As for `CC(C)=CCC/C(C)=C/CC/C(C)=C/CC/C(C)=C/CC1=C(C)C(=O)c2ccccc2C1=O` [vitamin K2, 2-Methyl-3-[(2E,6E,10E)-3,7,11,15-tetramethyl-2,6,10,14-hexadecatetraenyl]naphthoquinone], the LD50 was above 5000 mg/kg in the series with SD rats (intraperitoneal); above 5000 mg/kg in the series with SD rats (oral); above 5000 mg/kg in the series on SD rats (subcutaneous); above 5000 mg/kg in series [1] (ip, intraperitoneal); above 5000 mg/kg in series [1] (oral); above 5000 mg/kg in series [1] (sc, subcutaneous). Further, the LD50 in the series on beagles (intraperitoneal) was above 3000 mg/kg; in the series with beagles (oral), above 3000 mg/kg; in the series with beagles (subcutaneous) it was above 3000 mg/kg; in series [2] (ip, intraperitoneal), above 3000 mg/kg; in series [2] (oral), above 3000 mg/kg; in series [2] (sc, subcutaneous), above 3000 mg/kg. Moreover, the LD50 was above 5000 mg/kg with ICR mice (intraperitoneal); above 5000 mg/kg in the series on ICR mice (oral); above 5000 mg/kg in the series with ICR mice (subcutaneous); above 5000 mg/kg in series [3] (ip, intraperitoneal); above 5000 mg/kg in series [3] (oral); above 5000 mg/kg in series [3] (sc, subcutaneous). Also, the “Aorta Ca” value with arteriosclerotic rats (po, 10 mg/kg, 1008 h) stood at 5.0 ± 3.8 mg/dL; with arteriosclerotic rats (po, 100 mg/kg, 1008 h), 2.6 ± 3.2 mg/dL. Besides, the “Aorta P” value was 12.6 ± 12.2 mg/dL with arteriosclerotic rats (po, 10 mg/kg, 1008 h) and 3.7 ± 4.3 mg/dL with arteriosclerotic rats (po, 100 mg/kg, 1008 h). Besides, the “Kidney Ca” value in the series on arteriosclerotic rats (po, 10 mg/kg, 1008 h) worked out at 3.4 ± 3.8 mg/dL; with arteriosclerotic rats (po, 100 mg/kg, 1008 h), 1.6 ± 1.4 mg/dL. Further, the “Kidney P” value is 6.3 ± 2.7 mg/dL with arteriosclerotic rats (po, 10 mg/kg, 1008 h) and 4.5 ± 1.4 mg/dL with arteriosclerotic rats (po, 100 mg/kg, 1008 h).
In the case of `C=C1CC[C@H](O)C/C1=C/C=C1\CCC[C@]2(C)[C@@H]([C@H](C)/C=C/[C@H](C)C(C)C)CC[C@@H]12` [vitamin D2], in the series on arteriosclerotic rats (setting [4]), the “Aorta Ca” value is 11.6 ± 11.1 mg/dL, the “Aorta P” value turned out to be 10.9 ± 7.1 mg/dL, the “Kidney Ca” value was determined as 7.6 ± 7.8 mg/dL and the “Kidney P” value stood at 7.2 ± 2.0 mg/dL. The “calcium and phosphorus contents in the aorta” value with arteriosclerotic rats (group A, vitamin D2 2.5 × 10^5 IU/kg/day p.o. alone, 6 weeks) is “significant increases”.
